Source: US7618802B2 (priority 2003, dated 2009)

How the values were obtained:
wild type SARS-CoV = format: cell-based; conditions: single dose of 500 μg/ml at 1 hr pi
icSARS-CoV = format: cell-based, SARS-CoV; conditions: single dose of 500 μg/ml at 1 hr pi

CCOC(=O)[C@H]1O[C@@H]1C(=O)N[C@@H](CC(C)C)C(=O)NCCC(C)C (relative stereo) [E64-d, {2S, 3S}-trans-epoxysuccinyl-L-leucylamido-3-methylbutane ethyl ester]
viral CPE and viral antigen expression (wild type SARS-CoV): almost complete elimination
reduction in virus yield (wild type SARS-CoV; 24 and 48 hrs postinfection): 3-4 log
viral CPE and viral antigen expression (icSARS-CoV): almost complete elimination
reduction in virus yield (icSARS-CoV; 24 and 48 hrs postinfection): 3-4 log
